In general, melting point refers to the temperature, or range, at which the solid turns liquid.

The structures appear in SMILES notation.

Data set [1] has as its system Chrysosporium keratinophilum. In words: Agar plate disc-diffusion, antifungal. Type of data set: cell-based. As for the experimental part: (§1) The agar plate disc-diffusion method was applied. Sterilized filter papers (6 mm in diameter) were wetted with 10 μL of a solution of N′-(2-(5-phenyl-1,3,4-oxadiazol-2-ylthio)acetoxy)-2-naphthimidamide (3) to be tested, containing 10 mg/mL in DMSO, and the discs were allowed to air dry. The discs were then placed onto the surface of agar plates (nutrient agar for bacteria and Sabouraud's dextrose agar for fungi) seeded with the test organism. Each plate contained 15 of the agar medium, previously seeded with 0.2 mL of the broth culture of each organism pre-grown for 18 hours. The plates were incubated at 37° C. for 48 hours and 72 hours for fungi. The inhibition zones were measured in mm. Discs impregnated with DMSO were used as a control, and their inhibition zone was subtracted from the tested compound's actual inhibition zone.

Another data set relates to Aspergillus flavus. The data set can be described thus: Agar plate disc-diffusion, antifungal. The data set is classed as cell-based. The protocol:
as §1, with “Sterilized filter papers (6 mm in diameter) were wetted with 10 μL of a solution of N′-(2-(5-phenyl-1,3,4-oxadiazol-2-ylthio)acetoxy)-2-naphthimidamide (3) to be tested, containing 10 mg/mL in DMSO, and the discs were allowed to air dry.” left out
A general note: A growth-free zone around the sample is the usual read-out of agar diffusion tests.

Another data set concerns Bacillus cereus. The data set can be described thus: Agar plate disc-diffusion, antibacterial. Type of data set: cell-based. The protocol: as §1, with “Sterilized filter papers (6 mm in diameter) were wetted with 10 μL of a solution of N′-(2-(5-phenyl-1,3,4-oxadiazol-2-ylthio)acetoxy)-2-naphthimidamide (3) to be tested, containing 10 mg/mL in DMSO, and the discs were allowed to air dry.” left out

In another data set the test system is Escherichia coli. In words: Agar plate disc-diffusion, antibacterial. The data set is classed as cell-based. The protocol:
as §1, with “Sterilized filter papers (6 mm in diameter) were wetted with 10 μL of a solution of N′-(2-(5-phenyl-1,3,4-oxadiazol-2-ylthio)acetoxy)-2-naphthimidamide (3) to be tested, containing 10 mg/mL in DMSO, and the discs were allowed to air dry.” left out

For another data set, the system named is Pseudomonas aeruginosa. The data set can be described thus: Agar plate disc-diffusion, antibacterial. The data set is classed as cell-based. As for the experimental part: as §1, with “Sterilized filter papers (6 mm in diameter) were wetted with 10 μL of a solution of N′-(2-(5-phenyl-1,3,4-oxadiazol-2-ylthio)acetoxy)-2-naphthimidamide (3) to be tested, containing 10 mg/mL in DMSO, and the discs were allowed to air dry.” left out

A further data set relates to Staphylococcus aureus. The data set can be described thus: Agar plate disc-diffusion, antibacterial. Type of data set: cell-based. As for the experimental part: as §1, with “Sterilized filter papers (6 mm in diameter) were wetted with 10 μL of a solution of N′-(2-(5-phenyl-1,3,4-oxadiazol-2-ylthio)acetoxy)-2-naphthimidamide (3) to be tested, containing 10 mg/mL in DMSO, and the discs were allowed to air dry.” left out

[2] abbreviates: column A (key only in Table 1: 10,000 μL).
Where [3] appears, read: column B (key only in Table 1: 30.000 μL).
[4] abbreviates: column C (key only in Table 1: 50,000 μL).
Where [5] appears, read: B = concentration of comp. = 30.000 μL.
Where [6] appears, read: C = concentration of comp. = 50,000 μL.
[7] abbreviates: A = concentration of comp. = 10,000 μL.

On to `N/C(=N\OC(=O)CSc1nnc(-c2ccccc2)o1)c1cccc2ccccc12` [Compound 3, N′-(2-(5-phenyl-1,3,4-oxadiazol-2-ylthio)acetoxy)-1-naphthimidamide], for which the melting point lay in the range of 177 to 178 °C. Also, the inhibition zone in data set [1] (setting [2]) was found to be 29 mm. Moreover, in data set [1] (setting [3]), the inhibition zone amounted to 37 mm. This compound also showed an inhibition zone in data set [1] (setting [4]) of 43 mm. The inhibition zone in the data set on Aspergillus flavus (setting [2]) was 15 mm. For the same compound, the inhibition zone in the data set with Aspergillus flavus (setting [3]) was 22 mm. In the data set on Aspergillus flavus (setting [4]), the inhibition zone is recorded as 30 mm. In the data set with Bacillus cereus (A = concentration of comp.), the inhibition zone was 19 mm. In the data set on Bacillus cereus (setting [5]), this compound returned an inhibition zone of 26 mm. The compound also displayed an inhibition zone in the data set with Bacillus cereus (setting [6]) of 35 mm. Further, the inhibition zone in the data set with Escherichia coli (setting [7]) stood at 35 mm. This compound came in with an inhibition zone in the data set with Escherichia coli (setting [5]) of 39 mm. Besides, in the data set with Escherichia coli (setting [6]), the inhibition zone is given as 45 mm. For the same compound, in the data set with Pseudomonas aeruginosa (setting [7]), the inhibition zone came out at 22 mm. The inhibition zone in the data set on Pseudomonas aeruginosa (setting [5]) was found to be 30 mm. In addition, the inhibition zone with Pseudomonas aeruginosa (setting [6]) was determined as 37 mm. Moreover, in the data set with Staphylococcus aureus (setting [7]), the inhibition zone is 29 mm. Besides, in the data set on Staphylococcus aureus (setting [5]), the inhibition zone is 35 mm. The inhibition zone in the data set with Staphylococcus aureus (setting [6]) is 44 mm.
Regarding `O=C(O)c1cn(C2CC2)c2cc(N3CCNCC3)c(F)cc2c1=O` [Cip., ciprofloxacin, reference compound], the inhibition zone in the data set with Bacillus cereus (A = concentration of comp.) turned out to be 29 mm; with Bacillus cereus (setting [5]), 30 mm; in the data set with Bacillus cereus (setting [6]) it was 42 mm; with Escherichia coli (setting [7]) it was 30 mm; in the data set with Escherichia coli (setting [5]), 39 mm; with Escherichia coli (setting [6]), 60 mm. Besides, the inhibition zone in the data set on Pseudomonas aeruginosa (setting [7]) was determined as 29 mm; in the data set on Pseudomonas aeruginosa (setting [5]), 30 mm; in the data set on Pseudomonas aeruginosa (setting [6]), 53 mm; in the data set on Staphylococcus aureus (setting [7]), 43 mm; with Staphylococcus aureus (setting [5]) it was 44 mm; with Staphylococcus aureus (setting [6]) it was 53 mm.

The values are drawn from patent US11897849B1, “N′-(2-(5-phenyl-1,3,4-oxadiazol-2-ylthio)acetoxy)-1-naphthimidamide as antimicrobial compound” (KING FAISAL UNIVERSITY, priority 2023, dated 2024).
